What follows are compounds tested on Molm13 (assay: cells). Conditions: 1 uM, 4 days, 96 h.
Design: Molm13 cell viability screen of virtual-screening hits, 4 days of treatment, per cent of control
Procedure: We performed virtual screening. Briefly, we screened compounds for binding affinity to PRMT9; compounds were from the National Cancer Institute (NCI) and ZINC library (Fig. 4a,b). […] We used doses of 1 and 5 µM in a Molm13 cell-based viability assay (Extended Data Fig. 6a). […] Specifically, we assessed their effects on PRMT9 catalysis (Extended Data Fig. 6b). […] Cells were treated for 4 days with 1 or 5 μM compounds. For each compound, the number represents its library ID. Experiments were triplicated; P values were derived from t tests. b, R493 methylation assay. […] Catalytic activity was assessed by anti-R493 antibody. Synthesized R493me peptide as positive control. c, Catalysis screen of top 20 compounds. PRMT9 protein was pretreated with indicated compound (10 μM), then incubated with PABPC1 peptides and SAM. d, e, Catalytic activity of indicated compounds based on R493 methylation assay (d). Inhibition curves were calculated based on intensity of dots and normalized to DMSO (e). […] LD2 is designed based on NSC641396 (g). Docking model of NSC641396 in the catalytic pocket (f). h, IC50 analysis of LD2 in B-NHL lines. Cells were treated for 4 days with LD2. […] Cells were treated with a dose titration of 0.5–40 μM LD2 for 48 hr. The inhibition activity of LD2 to PRMT9 (right red curve) was evaluated by calculating the normalized PABPC1 R493 methylation signal. The inhibition activity of LD2 to PRMT5 (right blue curve) was evaluated by calculating the normalized SmB’B’ methylation signal (supplementary Fig. 2). k, Vina docking of LD2 with PRMT9, PRMT5, CARM1 or PRMT7 was performed, and the average docking scores (kcal/mol, with standard deviation) were shown. l, Molecular dynamics simulation analyses of LD2 with PRMT9 or PRMT5.

Row | SMILES | % viability
1 | OC(COc1cccc2ccccc12)CN1CCN(c2ccc(Cl)cc2)CC1 (stereo not shown) [NSC91397] | 148.7%

Same assay, conditions: 5 uM, 4 days, 96 h

Row | SMILES | % viability
2 | OC(COc1cccc2ccccc12)CN1CCN(c2ccc(Cl)cc2)CC1 (stereo not shown) [NSC91397] | 145.8%

Same assay, conditions: Homo sapiens, MOLM-13, 96 h, 4 days

Row | SMILES | viability at 1 µM | viability at 5 µM
3 | Cc1c(O)ccc2c(O)c(NC(=O)c3ccc4c(c3)CCC(C)(C)O4)c(=O)oc12 [NSC5157] | 94.6% | –
4 | Cc1ccc(NC(=S)NC(=O)c2ccccc2)cc1NC(=S)NC(=O)c1ccccc1 [NSC5856] | 91.4% | 91.5%
5 | c1ccc(-n2c3ccccc3c3ccccc32)cc1 [NSC10416] | 99.1% | 81.7%
6 | O=C1C(=Nc2cccc(Cl)c2)CC(c2ccc(Cl)cc2)N1c1cccc(Cl)c1 (stereo not shown) [NSC13294] | 98.3% | 97.9%
7 | CCN(CC)c1ccc(/C=C/c2cc(-c3ccccc3)c3ccccc3n2)cc1 [NSC13487] | 93.3% | 94.8%
8 | Clc1ccccc1/C=C/c1ccnc2ccccc12 [NSC15784] | 85.7% | 81.7%
9 | CC(=O)Oc1ccc2cc(-c3ccccc3)c(=O)oc2c1 [NSC17055] | – | 102%
10 | Cn1ncc2c(Nc3ccccc3Cl)nc(Nc3ccccc3Cl)nc21 [NSC19061] | 158% | –
11 | COC(=O)[C@@H]1[C@H](O)[C@H](C)[C@H](O)[C@H](C)/C=C\C=C(/C)C(=O)Nc2c(C)c(OC(C)=O)c3c(c2O)C(=O)C(C)=C2OCOC(=C23)/C(C)=C/[C@@](C)(O)[C@H](O)[C@@H](C)[C@H]1O [NSC19990] | 68.6% | 83.8%
12 | C[C@H]1CC[C@@]2(C)[C@@H](CC[C@@H]3[C@@H]2CC[C@]2(C)[C@@H](O)CC[C@@H]32)C1 [NSC21603] | – | 96.5%
13 | c1ccc(Nc2cccc3c(Nc4ccccc4)cccc23)cc1 [NSC24032] | 120% | –
14 | c1ccc(-c2nc(-c3nccc4ccccc34)oc2-c2ccccc2)cc1 [NSC25457] | – | 110%
15 | Cc1cc(O)c(C(C)C)cc1NC(=O)Nc1cccc2ccccc12 [NSC32673] | 90.3% | 45.8%
16 | COc1cc2c(cc1OC)C(=O)Cc1ccc3c(c1CN(C)CC2)OCO3 [NSC32984] | 137% | –
17 | Cc1cc(O)c(C(C)C)cc1N=Cc1cc([N+](=O)[O-])ccc1O [NSC33472] | 120% | –
18 | O=C(Nc1cccc(-c2ccccc2)c1)N1CCN(C(=O)Nc2cccc(-c3ccccc3)c2)CC1 [NSC37553] | 96.2% | –
19 | O=C1c2cccc(Oc3ccccc3)c2C(=O)c2cccc(Oc3ccccc3)c21 [NSC37627] | 144% | 151%
20 | CN1CCN(C(=O)Nc2cccc(-c3ccccc3)c2)CC1 [NSC39352] | 96.7% | –
21 | COc1ccc2nc(-c3ccc(Cl)cc3)cc(C(=O)O)c2c1 [NSC39984] | 76.8% | 79.5%
22 | Cc1ccc2c(c1)Sc1c(ccc3ccccc13)N2 [NSC40273] | – | 102%
23 | O=C(O)c1cc2ccccc2cc1Nc1ccccc1 [NSC40275] | 116% | –

Row | SMILES | viability at 1 µM | viability at 5 µM
24 | O=C(Nc1cccc([N+](=O)[O-])c1)c1ccc2ccccc2c1O [NSC50648] | 81% | 62.1%
25 | COc1ccc(NC(=O)c2cc3ccc4c5ccccc5[nH]c4c3cc2O)cc1 [NSC50654] | 127% | 134%
26 | Brc1ccc(-c2csc(Nc3nc(-c4ccc(Br)cc4)cs3)n2)cc1 [NSC55691] | – | 114%
27 | Cc1cc(N=Nc2c(O)c3ccccc3[nH]c2=O)ccc1N=Nc1ccc(C(=O)N(C)C)cc1 [NSC58052] | 96% | 80.5%
28 | CC(=O)O[C@H]1CC[C@@]2(C)[C@@H](CC[C@@H]3[C@@H]2CC(=O)[C@@]2(C)[C@H]3C[C@@H]3CC(C)=CC(=O)[C@@H]32)C1 [NSC59620] | – | 93.6%
29 | Nc1ccc(-c2nc3nc(N)nc(N)c3nc2-c2ccc(N)cc2)cc1 [NSC61642] | – | 116%
30 | Cc1cccc2cc3cccc(C)c3nc12 [NSC61888] | 144% | 134%
31 | O=C(Nc1ccc(C2=NCCCN2)cc1)Nc1ccc(C2=NCCCN2)cc1 [NSC63680] | – | 75.2%
32 | O=C(Nc1ccc(C2=NCCN2)cc1)c1ccc(Cl)c(C(=O)Nc2ccc(C3=NCCN3)cc2)c1 [NSC67436] | 95.2% | 81.3%
33 | O=[N+]([O-])c1ccc2[nH]c3nc4ccccc4nc3c2c1 [NSC78697] | 169% | 157%
34 | COc1ccc2c3c([nH]c2c1)[C@H]1C[C@H]2[C@H](C[C@@H](O)[C@H](OC)[C@H]2CO)CN1CC3 [NSC80137] | 82.2% | 75.6%
35 | N#Cc1ccc(NC(=O)Nc2ccc(Oc3ccc(NC(=O)Nc4ccc(C#N)cc4)cc3)cc2)cc1 [NSC80734] | – | 67.2%
36 | O=C(/C=C/C(=O)N1CCc2ccccc2C1)N1CCc2ccccc2C1 [NSC87838] | 92.3% | 92.6%
37 | OC(COc1cccc2ccccc12)CN1CCN(c2ccccc2Cl)CC1 (stereo not shown) [NSC91396] | 147% | 143%
38 | OC(COc1cccc2ccccc12)CN1CCN(c2ccccc2)CC1 (stereo not shown) [NSC91398] | 59.8% | 60.9%
39 | Cc1ccc(N2CCN(CC(O)COc3cccc4ccccc34)CC2)cc1 (stereo not shown) [NSC91402] | 156% | 145%
40 | O=C(/C=C/c1ccc(O)c(O)c1)O[C@@H]1C[C@@](OC(=O)/C=C/c2ccc(O)c(O)c2)(C(=O)O)C[C@@H](O)[C@@H]1O [NSC91529] | 110% | –
41 | C[C@]12C[C@H](O)[C@H]3[C@@H](CCC4=CC(=O)CC[C@@]43C)[C@@H]1CC[C@@H]2c1csc(-c2ccccc2)n1 [NSC93354] | 91.9% | 69.1%
42 | CC[C@@]1(O)C(=O)OCc2c1cc1n(c2=O)Cc2cc3ccccc3nc2-1 [NSC94600] | 2.48% | 1.54%
43 | CC(=O)O[C@H]1CC[C@]2(C)C(=CC[C@H]3[C@H]4C[C@H]5O[C@]6(CC[C@H](C)CN6)[C@H](C)[C@@H]5[C@]4(C)CC[C@@H]32)C1 [NSC96021] | 102% | 87.9%
44 | c1cc2c3c(cccc3c1)NC1(CCC3(CC1)Nc1cccc4cccc(c14)N3)N2 [NSC97920] | 59.1% | 8.91%

Row | SMILES | viability at 1 µM | viability at 5 µM
45 | Cc1cc2cc3c(=O)[nH]c(=O)[nH]c3nc2cc1C [NSC109174] | – | 79.9%
46 | OC(COc1cccc2ccccc12)CN1CCN(c2ccc(Cl)cc2)CC1 (stereo not shown) [NSC111210] | 160% | 139%
47 | Oc1ccc2ccccc2c1C=Nc1ccccc1 [NSC111846] | 77% | 84.6%
48 | Oc1ccccc1N=Cc1c(O)ccc2ccccc12 [NSC111847] | – | 85.7%
49 | Oc1ccc(N=Cc2c(O)ccc3ccccc23)cc1 [NSC111848] | 93.1% | 74.1%
50 | c1ccc(-c2nc(-c3ccccn3)nc(-c3ccccn3)n2)nc1 [NSC112125] | 85.4% | 81.8%
51 | c1ccc(-c2ccc(-c3nccc4ccccc34)[nH]2)cc1 [NSC116644] | – | 88.3%
52 | Cc1ccc(-c2nc(-c3nccc4ccccc34)oc2-c2ccccc2)cc1 [NSC116702] | 87.8% | 150%
53 | O=C(CC1C=Cc2ccccc2N1C(=O)c1ccccc1)c1ccccc1 (stereo not shown) [NSC116709] | 90.2% | 72.7%
54 | NC1=NC(c2ccc(Cl)cc2)N(c2ccc(S(N)(=O)=O)cc2)C(N)=N1 (stereo not shown) [NSC117268] | 90.3% | –
55 | O=C(O)c1ccccc1-c1ccccc1C(=O)Nc1ccc2c(c1)nc(O)c1ccccc12 [NSC127133] | 99% | 102%
56 | Clc1ccccc1-c1nc2ccccc2[nH]1 [NSC128751] | 80.4% | 80%
57 | CCn1c2ccccc2c2cc(NC(=O)c3ccccc3-c3ccccc3C(=O)O)ccc21 [NSC132232] | 91.3% | –
58 | CN1C2c3ccccc3C3C4c5ccccc5C(C31)C(C2[N+](=O)[O-])N4C (stereo not shown) [NSC137112] | 146% | 148%
59 | CCNc1nc(Cl)nc(-c2cn(-c3ccccc3)c3ccccc23)n1 [NSC142446] | 87.1% | –
60 | O=C(Nc1ccc(Nc2ccncc2)cc1)c1ccc(Nc2ccnc3ccc([N+](=O)[O-])cc23)cc1 [NSC146771] | 91.1% | –
61 | O=C1c2cccc(Sc3ccccc3)c2C(=O)c2c(Sc3ccccc3)cccc21 [NSC156516] | 122% | 118%
62 | O=C(Nc1ccc2ccccc2c1)c1ccc(Cl)cc1Cl [NSC158959] | – | 127%
63 | O=C(Nc1ccc(Nc2ccncc2)cc1)c1ccc(Nc2ccnc3ccc([N+](=O)[O-])cc23)cc1[N+](=O)[O-] [NSC202386] | 118% | 80.4%
64 | O=C(Nc1cccc([N+](=O)[O-])c1)c1cccc(C(=O)Nc2cccc([N+](=O)[O-])c2)c1 [NSC204232] | 110% | –
65 | O=C(Nc1ccccc1Cl)Oc1ccc(-c2ccccc2)cc1 [NSC204321] | – | 90.1%
